According to patent publication US11051515B2, “3-acyl-benzamides and their use as herbicides” (Bayer Aktiengesellschaft, priority 2017, dated 2021):

What was measured:
ECHCG [1] = test: Pre-emergence action against ECHCG; type: in vivo, Echinochloa crus-galli; conditions: pre-emergence, dosage 320 g/ha, scored visually after 3 weeks vs untreated controls
In short: (§1)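 Seeds sown in sandy loam in wood-fiber pots and covered with soil. Greenhouse growth; visual damage scored after 3 weeks versus untreated controls (100% = dead, 0% = like control).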

AVEFA [2] = test: Pre-emergence action against AVEFA; type: in vivo, Avena fatua; conditions: dosage 320 g/ha, scored visually after 3 weeks vs untreated controls
In short: as §1

VIOTR [3] = test: Pre-emergence action against VIOTR; type: in vivo, Viola tricolor; conditions: Dosage 320 g/ha, pre-emergence
In short: as §1

VERPE [4] = test: Post-emergence action against VERPE; type: in vivo, Veronica persica; conditions: dosage 80 g/ha
In short: (§2)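 Weeds grown in sandy loam in greenhouse, treated at one-leaf stage (2–3 weeks after sowing) with WP or EC formulations sprayed as aqueous suspension/emulsion at 600 to […] water with 0.2% wetting agent. Visual rating after about 3 weeks versus untreated controls, as % herbicidal action (100% = plants dead, 0% = like control).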

HORMU [5] = test: Post-emergence action against HORMU; type: in vivo, Hordeum murinum; conditions: dosage 80 g/ha
Description: Seeds of monocotyledonous and dicotyledonous weed and crop plants are laid out in sandy loam soil in wood-fiber pots, covered with soil and cultivated in a greenhouse under good growth conditions. 2 to 3 weeks after sowing, the test plants are treated at the one-leaf stage. The compounds of the invention, formulated in the form of wettable powders (WP) or as emulsion concentrates (EC), are then sprayed onto the green parts of the plants in the form of an aqueous suspension or emulsion at a water application rate equating to […], with addition of 0.2% wetting agent. After the test plants have been left to stand in the greenhouse under optimal growth conditions for about 3 weeks, the action of the preparations is assessed visually in comparison to untreated controls (herbicidal action in percent (%): 100% activity=the plants have died, 0% activity=like control plants). […] At the same time, inventive compounds leave Gramineae crops such as barley, wheat, rye, millet/Sorghum, corn or rice virtually undamaged when applied post-emergence, even at high active ingredient dosages. In addition, some substances are also harmless to dicotyledonous crops such as soya, cotton, oilseed rape, sugar beet or potatoes. Some of the compounds according to the invention have high selectivity and are therefore suitable for controlling unwanted vegetation in agricultural crops by the post-emergence method. The data of Tables B18 to B34 below illustrate, in an exemplary manner, the […] herbicidal action of the compounds according to the invention, the herbicidal activity being stated in percent.

ABUTH [6] = test: Post-emergence action against ABUTH; type: in vivo, Abutilon theophrasti; conditions: post-emergence, dosage 80 g/ha, visual assessment about 3 weeks after treatment vs untreated controls
In short: as §2

AMARE [7] = test: Pre-emergence action against AMARE; type: in vivo, Amaranthus retroflexus; conditions: pre-emergence, dosage 320 g/ha, scored visually after 3 weeks vs untreated controls
In short: as §1

DIGSA [8] = test: Post-emergence action against DIGSA; type: in vivo, Digitaria sanguinalis; conditions: dosage 80 g/ha, visual assessment about 3 weeks after treatment vs untreated controls
In short: as §2

ALOMY [9] = test: Pre-emergence action against ALOMY; type: in vivo, Alopecurus myosuroides; conditions: dosage 320 g/ha; pre-emergence; scored visually after 3 weeks vs untreated controls; 100% = plants have died, 0% = like control plants
In short: as §1

VERPE [10] = test: Pre-emergence action against VERPE; type: in vivo, Veronica persica; conditions: Dosage 320 g/ha, pre-emergence
In short: as §1

ALOMY [11] = test: Post-emergence action against ALOMY; type: in vivo, Alopecurus myosuroides; conditions: Dosage 80 g/ha, post-emergence
In short: as §2

HORMU [12] = test: Pre-emergence action against HORMU; type: in vivo, Hordeum murinum; conditions: Dosage 320 g/ha
In short: as §1

STEME [13] = test: Pre-emergence action against STEME; type: in vivo, Stellaria media; conditions: Dosage 320 g/ha, pre-emergence
In short: as §1

SETVI [14] = test: Post-emergence action against SETVI; type: in vivo, Setaria viridis; conditions: post-emergence, dosage 80 g/ha, visual assessment about 3 weeks after treatment vs untreated controls
In short: as §2

ECHCG [15] = test: Post-emergence action against ECHCG; type: in vivo, Echinochloa crus-galli; conditions: post-emergence, dosage 80 g/ha, visual assessment about 3 weeks after treatment vs untreated controls
In short: as §2

PHBPU [16] = test: Pre-emergence action against PHBPU; type: in vivo, Pharbitis purpurea; conditions: Dosage 320 g/ha, pre-emergence
In short: as §1

SETVI [17] = test: Pre-emergence action against SETVI; type: in vivo, Setaria viridis; conditions: pre-emergence, dosage 320 g/ha, scored visually after 3 weeks vs untreated controls
In short: as §1

ABUTH [18] = test: Pre-emergence action against ABUTH; type: in vivo, Abutilon theophrasti; conditions: pre-emergence, dosage 320 g/ha, scored visually after 3 weeks vs untreated controls
In short: as §1

STEME [19] = test: Post-emergence action against STEME; type: in vivo, Stellaria media; conditions: post-emergence, dosage 80 g/ha
In short: as §2

MATIN [20] = test: Post-emergence action against MATIN; type: in vivo, Matricaria inodora; conditions: post-emergence, dosage 80 g/ha, visual assessment about 3 weeks after treatment vs untreated controls
In short: as §2

POLCO [21] = test: Pre-emergence action against POLCO; type: in vivo, Polygonum convolvulus; conditions: Dosage 320 g/ha, pre-emergence
In short: as §1

MATIN [22] = test: Pre-emergence action against MATIN; type: in vivo, Matricaria inodora; conditions: Dosage 320 g/ha, pre-emergence
In short: as §1

PHBPU [23] = test: Post-emergence action against PHBPU; type: in vivo, Pharbitis purpurea; conditions: post-emergence, dosage 80 g/ha
In short: as §2

POLCO [24] = test: Post-emergence action against POLCO; type: in vivo, Polygonum convolvulus; conditions: post-emergence, dosage 80 g/ha
In short: as §2

LOLRI = test: Pre-emergence action against LOLRI; type: in vivo, Lolium rigidum; conditions: dosage 320 g/ha, scored visually after 3 weeks vs untreated controls
In short: as §1

AVEFA [25] = test: Post-emergence action against AVEFA; type: in vivo, Avena fatua; conditions: post-emergence, dosage 80 g/ha, visual assessment about 3 weeks after treatment vs untreated controls
In short: as §2

DIGSA [26] = test: Pre-emergence action against DIGSA; type: in vivo, Digitaria sanguinalis; conditions: dosage 320 g/ha, scored visually after 3 weeks vs untreated controls
In short: as §1

VIOTR [27] = test: Post-emergence action against VIOTR; type: in vivo, Viola tricolor; conditions: post-emergence, dosage 80 g/ha
In short: as §2

AMARE [28] = test: Post-emergence action against AMARE; type: in vivo, Amaranthus retroflexus; conditions: post-emergence, dosage 80 g/ha, visual assessment about 3 weeks after treatment vs untreated controls
In short: as §2

CCn1nnnc1NC(=O)c1ccc(C(F)(F)F)c(C(=O)C2CC2)c1C1CC1 [2-233]
Pre-emergence action against ECHCG (herbicidal activity) (ECHCG [1]): 100% | Pre-emergence action against AVEFA (herbicidal activity) (AVEFA [2]): 100% | Pre-emergence action against VIOTR (VIOTR [3]): 100% | Post-emergence action against VERPE (VERPE [4]): 100 | Post-emergence action against HORMU (HORMU [5]): 90 | Post-emergence action against ABUTH (herbicidal action in percent) (ABUTH [6]): 100% | Pre-emergence action against AMARE (herbicidal activity) (AMARE [7]): 100% | Post-emergence action against DIGSA (herbicidal action in percent) (DIGSA [8]): 90% | Pre-emergence action against ALOMY (herbicidal activity in percent) (ALOMY [9]): 100% | Pre-emergence action against VERPE (VERPE [10]): 100% | Post-emergence action against ALOMY (ALOMY [11]): 90% | Pre-emergence action against HORMU (HORMU [12]): 90% | Pre-emergence action against STEME (STEME [13]): 100% | Post-emergence action against SETVI (herbicidal action in percent) (SETVI [14]): 90% | Post-emergence action against ECHCG (herbicidal action in percent) (ECHCG [15]): 90% | Pre-emergence action against PHBPU (PHBPU [16]): 100% | SETVI (Table B8, pre-emergence herbicidal activity) (SETVI [17]): 100% | Pre-emergence action against ABUTH (herbicidal activity) (ABUTH [18]): 100% | Post-emergence action against STEME (STEME [19]): 90 | Post-emergence action against MATIN (herbicidal action in percent) (MATIN [20]): 90% | Pre-emergence action against POLCO (POLCO [21]): 90% | Pre-emergence action against MATIN (MATIN [22]): 100% | Post-emergence action against PHBPU (PHBPU [23]): 90 | Post-emergence action against POLCO (POLCO [24]): 80 | Pre-emergence action against LOLRI (herbicidal activity) (LOLRI): 90% | Post-emergence action against AVEFA (herbicidal action in percent) (AVEFA [25]): 90% | Pre-emergence action against DIGSA (herbicidal activity) (DIGSA [26]): 100% | Post-emergence action against VIOTR (VIOTR [27]): 90 | Post-emergence action against AMARE (herbicidal action in percent) (AMARE [28]): 100%
